For 2 compounds, remaining activity results are on record in patent US20070117770A1, “Human ribosomal DNA (rDNA) and ribosomal RNA (rRNA) nucleic acids and uses thereof” (Cylene Pharmaceuticals, Inc., priority 2005, published 2007).

Common to all, as to assay: Protein kinase inhibition assay
Format in all cases: biochemical

For one test, the target named is JAK2(h) (Homo sapiens, UniProt O60674). Conditions: read-out: percent residual activity of JAK2(h). On the procedure: (§1) Certain compounds were tested for activity in protein kinase inhibition assays. All substrates were dissolved and diluted to working stocks in de-ionized water, apart from histone H1 (10× working stock in 20 mM MOPS pH 7.0), PDKtide (10× working stock in 50 mM Tris pH 7.0) ATF2 (which is typically stored at a 20× working stock in 50 mM Tris pH 7.5, 150 mM NaCl, 0.1 mM EGTA, 0.03% Brij-35, 50% glycerol, 1 mM benzamidine, 0.2 mM PMSF and 0.1% R-mercaptoethanol), KKLNRTLSFAEPG (SEQ ID NO:203) and RRRLSFAEPG (SEQ ID NO:204) (50 mM HEPES pH 7.4) and GGEEEEYFELVKKKK (SEQ ID NO:205) (20 mM MOPS pH 7.0). All kinases were pre-diluted to a 10× working concentration prior to addition into the assay. The composition of the dilution buffer for each kinase is detailed below.
Chain of JAK2(h) (O60674 whole entry): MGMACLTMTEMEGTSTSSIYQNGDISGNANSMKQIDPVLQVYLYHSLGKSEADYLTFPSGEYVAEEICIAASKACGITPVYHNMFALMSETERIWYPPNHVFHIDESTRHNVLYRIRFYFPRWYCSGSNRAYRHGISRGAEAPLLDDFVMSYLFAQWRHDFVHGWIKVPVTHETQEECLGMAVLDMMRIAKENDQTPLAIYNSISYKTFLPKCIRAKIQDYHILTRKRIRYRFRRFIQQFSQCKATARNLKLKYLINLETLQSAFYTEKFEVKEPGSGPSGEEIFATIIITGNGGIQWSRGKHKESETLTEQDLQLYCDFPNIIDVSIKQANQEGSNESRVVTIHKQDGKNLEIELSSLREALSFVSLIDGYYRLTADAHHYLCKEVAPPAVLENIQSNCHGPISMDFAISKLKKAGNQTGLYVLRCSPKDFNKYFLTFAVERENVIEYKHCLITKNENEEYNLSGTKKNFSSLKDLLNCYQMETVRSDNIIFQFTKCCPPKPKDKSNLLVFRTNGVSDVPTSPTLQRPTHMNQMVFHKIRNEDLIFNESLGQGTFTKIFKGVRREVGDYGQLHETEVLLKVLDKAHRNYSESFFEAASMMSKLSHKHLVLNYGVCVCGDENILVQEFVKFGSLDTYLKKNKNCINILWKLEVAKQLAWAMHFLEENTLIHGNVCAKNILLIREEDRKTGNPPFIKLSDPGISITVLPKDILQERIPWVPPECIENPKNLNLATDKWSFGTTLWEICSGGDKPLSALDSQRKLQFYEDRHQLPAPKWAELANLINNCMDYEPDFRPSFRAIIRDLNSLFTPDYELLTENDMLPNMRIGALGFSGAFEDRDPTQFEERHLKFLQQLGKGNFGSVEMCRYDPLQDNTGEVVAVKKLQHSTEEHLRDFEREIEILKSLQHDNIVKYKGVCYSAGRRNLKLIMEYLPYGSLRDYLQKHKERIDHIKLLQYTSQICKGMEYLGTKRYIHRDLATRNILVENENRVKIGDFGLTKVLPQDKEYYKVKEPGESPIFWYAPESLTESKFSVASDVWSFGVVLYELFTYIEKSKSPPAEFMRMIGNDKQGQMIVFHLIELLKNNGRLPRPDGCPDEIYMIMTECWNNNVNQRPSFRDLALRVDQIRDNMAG
In a final reaction volume of 25 μl, JAK2 (h) (5-10 mU) is incubated with 8 mM MOPS pH 7.0, 0.2 mM EDTA, 100 μM […] (SEQ ID NO:217), 10 mM MgAcetate and [gamma-33P-ATP] (specific activity approx. 500 cpm/pmol, concentration as required). The reaction is initiated by the addition of the MgATP mix. After incubation for 40 minutes at room temperature, the reaction is stopped by the addition of 5 μl of a 3% phosphoric acid solution. 10 μl of the reaction is then spotted onto a P30 filtermat and washed three times for 5 minutes in 75 mM phosphoric acid and once in methanol prior to drying and scintillation counting.

A further test addresses CDK6/cyclinD3(h) (Homo sapiens, UniProt Q00534). The note with it: read-out: percent residual activity of CDK6/cyclinD3(h). On the procedure:
as §1
(§2) In a final reaction volume of 25 μl, CDK6/cyclinD3 (h) (5-10 mU) is incubated with 8 mM MOPS pH 7.0, 0.2 mM EDTA, 0.1 mg/ml histone H1, 10 mM MgAcetate and [gamma-33P-ATP] (specific activity approx. 500 cpm/pmol, concentration as required). The reaction is initiated by the addition of the MGATP mix. After incubation for 40 minutes at room temperature, the reaction is stopped by the addition of 5 μl of a 3% phosphoric acid solution. 10 μl of the reaction is then spotted onto a P30 filtermat and washed three times for 5 minutes in 75 mM phosphoric acid and once in methanol prior to drying and scintillation counting.

The target of a further test is FGFR4(h) (Homo sapiens, UniProt P22455). Conditions: read-out: percent residual activity of FGFR4(h). How it is done: as §1
Chain of FGFR4(h) (P22455 22-802): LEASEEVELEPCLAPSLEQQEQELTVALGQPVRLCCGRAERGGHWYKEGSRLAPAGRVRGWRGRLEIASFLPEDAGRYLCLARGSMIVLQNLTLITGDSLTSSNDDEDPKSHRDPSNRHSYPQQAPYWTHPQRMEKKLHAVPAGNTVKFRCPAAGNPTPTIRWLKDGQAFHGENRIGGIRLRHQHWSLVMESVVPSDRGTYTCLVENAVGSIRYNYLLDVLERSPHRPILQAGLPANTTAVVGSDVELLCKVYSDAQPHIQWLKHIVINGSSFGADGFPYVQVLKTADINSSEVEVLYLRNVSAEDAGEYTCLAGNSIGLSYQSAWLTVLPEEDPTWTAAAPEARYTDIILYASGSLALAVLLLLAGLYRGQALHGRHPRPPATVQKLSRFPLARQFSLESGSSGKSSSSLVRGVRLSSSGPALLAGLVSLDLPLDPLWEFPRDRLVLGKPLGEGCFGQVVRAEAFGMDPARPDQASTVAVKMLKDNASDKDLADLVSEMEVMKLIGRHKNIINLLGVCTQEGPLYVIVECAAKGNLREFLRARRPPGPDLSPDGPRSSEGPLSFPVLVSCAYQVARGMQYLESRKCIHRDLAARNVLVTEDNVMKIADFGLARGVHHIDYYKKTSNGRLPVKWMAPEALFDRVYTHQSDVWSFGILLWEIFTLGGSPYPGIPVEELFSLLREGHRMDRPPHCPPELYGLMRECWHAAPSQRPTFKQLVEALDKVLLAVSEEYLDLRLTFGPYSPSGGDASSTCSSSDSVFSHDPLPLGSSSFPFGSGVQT
as §2, with “FGFR4” for “CDK6/cyclinD3”, “EDTA, 10 mM MnCl2,” for “EDTA,”, “poly(Glu, Tyr) 4:1,” for “histone H1,”, “MgATP” for “MGATP”, “Filtermat A” for “P30 filtermat”

The next test addresses Fer(h) (Homo sapiens, UniProt P16591). The note with it: read-out: percent residual activity of Fer(h). On the procedure: as §1
In a final reaction volume of 25 μl, Fer (h) (5-10 mU) is incubated with 8 mM MOPS pH 7.0, 0.2 mM EDTA, 1 mM MnCl2, 250 μM KKKSPGEYVNIEFG (SEQ ID NO:207), 10 mM MgAcetate and [gamma-33P-ATP] (specific activity approx. 500 cpm/pmol, concentration as required). The reaction is initiated by the addition of the MgATP mix. After incubation for 40 minutes at room temperature, the reaction is stopped by the addition of 5 μl of a 3% phosphoric acid solution. […]

The target in the next test is Flt1(h) (Homo sapiens, UniProt P17948). The note with it: read-out: percent residual activity of Flt1(h). On the procedure:
as §1
In a final reaction volume of 25 μl, Flt1 (h) (5-10 mU) is incubated with 8 mM MOPS pH 7.0, 0.2 mM EDTA, 250 μM KKKSPGEYVNIEFG (SEQ ID NO:207), 10 mM MgAcetate and [gamma-33P-ATP] (specific activity approx. 500 cpm/pmol, concentration as required). The reaction is initiated by the addition of the MgATP mix. After incubation for 40 minutes at room temperature, the reaction is stopped by the addition of 5 μl of a 3% phosphoric acid solution. 10 μl of the reaction is then spotted onto a P30 filtermat and washed three times for 5 minutes in 75 mM phosphoric acid and once in methanol prior to drying and scintillation counting.

A further test addresses SAPK4(h) (Homo sapiens, UniProt O15264). The note with it: read-out: percent residual activity of SAPK4(h). On the procedure: as §1
In a final reaction volume of 25 μl, SAPK4 (h) (5-10 mU) is incubated with 25 mM Tris pH 7.5, 0.02 mM EGTA, 0.33 mg/ml myelin basic protein, 10 mM MgAcetate and [gamma-33P-ATP] (specific activity approx. 500 cpm/pmol, concentration as required). The reaction is initiated by the addition of the MgATP mix. After incubation for 40 minutes at room temperature, the reaction is stopped by the addition of 5 μl of a 3% phosphoric acid solution. 10 μl of the reaction is then spotted onto a P30 filtermat and washed three times for 5 minutes in 75 mM phosphoric acid and once in methanol prior to drying and scintillation counting.

Chain of Flt1(h) (P17948 27-1338): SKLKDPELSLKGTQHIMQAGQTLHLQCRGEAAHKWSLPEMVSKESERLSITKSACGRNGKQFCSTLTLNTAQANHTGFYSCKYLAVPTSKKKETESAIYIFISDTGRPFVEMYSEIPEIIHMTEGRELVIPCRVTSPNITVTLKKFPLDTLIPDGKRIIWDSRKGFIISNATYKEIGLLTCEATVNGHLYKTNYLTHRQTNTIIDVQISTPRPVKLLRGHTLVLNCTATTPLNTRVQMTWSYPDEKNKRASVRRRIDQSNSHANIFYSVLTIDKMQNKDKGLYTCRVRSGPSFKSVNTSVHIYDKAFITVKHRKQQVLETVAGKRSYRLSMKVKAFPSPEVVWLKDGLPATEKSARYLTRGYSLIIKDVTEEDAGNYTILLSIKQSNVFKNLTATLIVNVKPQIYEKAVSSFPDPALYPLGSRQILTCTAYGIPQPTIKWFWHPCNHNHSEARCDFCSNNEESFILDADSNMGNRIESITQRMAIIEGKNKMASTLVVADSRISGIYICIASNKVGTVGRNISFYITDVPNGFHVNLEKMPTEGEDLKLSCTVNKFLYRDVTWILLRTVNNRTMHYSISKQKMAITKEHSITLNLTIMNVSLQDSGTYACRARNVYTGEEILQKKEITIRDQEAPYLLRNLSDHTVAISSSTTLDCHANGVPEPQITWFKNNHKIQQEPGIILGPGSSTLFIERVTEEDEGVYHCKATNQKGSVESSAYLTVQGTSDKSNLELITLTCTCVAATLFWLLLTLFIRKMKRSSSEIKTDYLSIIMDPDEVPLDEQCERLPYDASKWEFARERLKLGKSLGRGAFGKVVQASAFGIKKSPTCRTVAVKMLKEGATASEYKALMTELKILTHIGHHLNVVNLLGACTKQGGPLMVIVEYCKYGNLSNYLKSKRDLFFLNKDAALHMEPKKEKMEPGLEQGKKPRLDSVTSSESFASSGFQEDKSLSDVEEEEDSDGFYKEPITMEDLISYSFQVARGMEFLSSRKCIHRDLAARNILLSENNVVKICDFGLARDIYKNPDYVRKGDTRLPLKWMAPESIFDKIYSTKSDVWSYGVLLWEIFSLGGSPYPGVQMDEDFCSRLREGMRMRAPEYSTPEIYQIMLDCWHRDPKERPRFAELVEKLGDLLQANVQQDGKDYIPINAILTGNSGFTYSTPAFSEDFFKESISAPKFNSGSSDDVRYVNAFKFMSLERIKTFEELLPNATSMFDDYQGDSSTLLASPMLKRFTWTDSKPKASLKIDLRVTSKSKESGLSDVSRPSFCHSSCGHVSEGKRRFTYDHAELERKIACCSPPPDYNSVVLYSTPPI
Chain of Fer(h) (P16591 whole entry): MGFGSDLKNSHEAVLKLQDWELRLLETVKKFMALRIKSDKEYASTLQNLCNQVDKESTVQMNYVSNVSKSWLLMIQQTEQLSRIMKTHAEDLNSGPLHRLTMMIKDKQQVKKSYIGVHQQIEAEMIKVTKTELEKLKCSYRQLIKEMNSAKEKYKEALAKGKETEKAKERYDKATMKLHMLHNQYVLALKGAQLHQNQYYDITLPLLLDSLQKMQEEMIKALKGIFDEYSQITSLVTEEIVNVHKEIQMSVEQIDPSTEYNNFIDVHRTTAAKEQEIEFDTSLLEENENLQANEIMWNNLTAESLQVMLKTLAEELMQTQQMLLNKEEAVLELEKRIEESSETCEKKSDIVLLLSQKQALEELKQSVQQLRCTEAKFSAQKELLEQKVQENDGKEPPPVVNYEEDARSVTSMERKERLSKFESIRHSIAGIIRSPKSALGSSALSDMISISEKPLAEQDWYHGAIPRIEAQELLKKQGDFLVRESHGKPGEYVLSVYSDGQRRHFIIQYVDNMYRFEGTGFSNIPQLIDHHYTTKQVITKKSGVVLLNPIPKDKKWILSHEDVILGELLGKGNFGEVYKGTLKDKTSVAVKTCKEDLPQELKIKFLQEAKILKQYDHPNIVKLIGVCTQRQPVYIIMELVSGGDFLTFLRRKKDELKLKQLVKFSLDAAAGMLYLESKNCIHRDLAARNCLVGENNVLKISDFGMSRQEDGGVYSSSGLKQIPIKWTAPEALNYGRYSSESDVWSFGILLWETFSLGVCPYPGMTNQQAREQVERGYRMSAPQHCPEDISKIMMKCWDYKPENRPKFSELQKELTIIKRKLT
Chain of CDK6/cyclinD3(h) (Q00534 whole entry): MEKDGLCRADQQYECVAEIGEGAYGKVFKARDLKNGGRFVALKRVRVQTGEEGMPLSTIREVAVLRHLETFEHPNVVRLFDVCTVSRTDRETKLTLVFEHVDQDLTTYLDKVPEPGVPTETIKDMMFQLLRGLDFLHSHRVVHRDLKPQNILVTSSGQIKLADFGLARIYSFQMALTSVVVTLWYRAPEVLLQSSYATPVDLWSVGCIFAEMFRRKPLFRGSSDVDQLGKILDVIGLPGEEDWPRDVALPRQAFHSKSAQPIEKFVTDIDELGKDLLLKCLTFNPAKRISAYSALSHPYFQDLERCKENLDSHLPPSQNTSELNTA
Chain of CDK6/cyclinD3(h) (P30281 whole entry partner): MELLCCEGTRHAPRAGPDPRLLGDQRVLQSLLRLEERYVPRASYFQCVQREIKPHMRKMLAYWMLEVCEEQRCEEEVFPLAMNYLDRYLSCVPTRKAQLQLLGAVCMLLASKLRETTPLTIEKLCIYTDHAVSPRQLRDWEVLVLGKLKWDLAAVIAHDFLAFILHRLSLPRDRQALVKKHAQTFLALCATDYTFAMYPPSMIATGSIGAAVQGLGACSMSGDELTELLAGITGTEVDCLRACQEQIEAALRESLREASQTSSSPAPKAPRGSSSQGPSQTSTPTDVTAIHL
Chain of SAPK4(h) (O15264 whole entry): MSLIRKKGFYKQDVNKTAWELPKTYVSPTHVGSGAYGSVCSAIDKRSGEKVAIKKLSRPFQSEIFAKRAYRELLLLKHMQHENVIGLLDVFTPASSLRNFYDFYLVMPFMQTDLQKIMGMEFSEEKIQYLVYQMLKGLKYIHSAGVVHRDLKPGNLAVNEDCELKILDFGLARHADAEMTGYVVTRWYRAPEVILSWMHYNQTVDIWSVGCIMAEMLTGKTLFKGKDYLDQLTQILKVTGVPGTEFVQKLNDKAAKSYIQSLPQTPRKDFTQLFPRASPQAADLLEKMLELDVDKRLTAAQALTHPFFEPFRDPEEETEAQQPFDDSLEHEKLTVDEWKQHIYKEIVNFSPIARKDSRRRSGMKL

As for `CN1CCCC1CCNC(=O)c1cn2c3c(c(N4CCC(c5cnccn5)C4)c(F)cc3c1=O)Oc1cc3ccccc3cc1-2` (stereo not drawn) [Compound A-1], the remaining activity at 2.5 µM on JAK2(h) came out at 105%; at CDK6/cyclinD3(h), 85%; at FGFR4(h) it was 112%; on Fer(h), 84%; at Flt1(h), 78%; on SAPK4(h), 31%.
On to `CC(=O)N1CCN(c2ccc3c(=O)c(C(=O)NCCN4CCCC4)c4n(C)c5ccccc5n4c3n2)CC1` [Compound B-1], for which the remaining activity at 2.5 µM on JAK2(h) worked out at 116%; at CDK6/cyclinD3(h), 100%; at FGFR4(h), 104%; on Fer(h), 94%; at Flt1(h) it was 106%; at SAPK4(h) it was 105%.
